9 molecules from patent US10392347B2, “2,4-dihydroxy-nicotinamides as APJ agonists” (BRISTOL-MYERS SQUIBB COMPANY, priority 2015, dated 2019) can be followed below.

This assay concerns the target T1, human APJ receptor (Homo sapiens, UniProt P35414).
T1 construct: expressed in transfected cells
T1 sequence (P35414 1-380): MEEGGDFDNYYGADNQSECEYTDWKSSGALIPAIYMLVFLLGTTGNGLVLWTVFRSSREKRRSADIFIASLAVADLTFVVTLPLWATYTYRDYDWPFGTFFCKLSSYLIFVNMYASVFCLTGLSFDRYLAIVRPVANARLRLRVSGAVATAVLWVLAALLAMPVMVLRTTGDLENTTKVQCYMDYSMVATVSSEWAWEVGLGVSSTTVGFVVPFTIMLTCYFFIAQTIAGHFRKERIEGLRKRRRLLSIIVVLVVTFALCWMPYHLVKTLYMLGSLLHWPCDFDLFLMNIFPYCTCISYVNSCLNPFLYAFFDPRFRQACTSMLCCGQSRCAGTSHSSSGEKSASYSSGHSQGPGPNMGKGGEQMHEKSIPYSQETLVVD
The assay is described as follows: Intracellular cAMP accumulation assay (APJ hcAMP, HTRF). Type of assay: cell-based. As to conditions: HEK293 cells stably expressing human APJ, forskolin-stimulated cAMP. The method, boiled down: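 Inhibition of forskolin (2 μM)-stimulated cAMP, with […], was measured after 30 min compound exposure at room temperature in stably transfected HEK293 cells. HTRF ratios were converted to cAMP via standard curve, and EC50 values came from variable-slope sigmoidal concentration-response fitting.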
A general note: Changes in cAMP serve as a functional read-out for many G protein-coupled receptors.

Where [1] appears, read: Table 5, read-out: Human cAMP EC50.
The mark [2] stands for this setting: Table 4, read-out: Human cAMP EC50.
Setting [3] is: Table 1, read-out: APJ cAMP EC50.

Where two headings read alike, the source gives them in different places.

In the case of `CCCCc1nc(O)c(C(=O)N2CCC(c3ncc(F)cc3F)C2)c(O)c1-c1cccc(OC)c1` (stereo not drawn) [Example 143, 6-butyl-3-[3-(3,5-difluoropyridin-2-yl)pyrrolidine-1-carbonyl]-5-(3-methoxyphenyl)pyridine-2,4-diol], the EC50 (commonly the concentration at which the effect is half-maximal) (Table 7, read-out: Human cAMP EC50) lay within 0.01 to 10 nM.
For the molecule `CCOCc1nc(O)c(C(=O)N2CCC(c3ccccc3F)C2)c(O)c1-c1c(OC)cccc1OC` (stereo not drawn) [Example 127, 5-(2,6-dimethoxyphenyl)-6-(ethoxymethyl)-3-[3-(2-fluorophenyl)pyrrolidine-1-carbonyl]pyridine-2,4-diol], the half-maximal effective concentration (EC50) under setting [1] lay in the range of 0.01 to 10 nM.
On to `CCCCc1nc(O)c(C(=O)N2CCN(Cc3cc(F)ccc3F)CC2)c(O)c1-c1c(OC)cccc1OC` [Example 122, 6-butyl-3-{4-[(2,5-difluorophenyl)methyl]piperazine-1-carbonyl}-5-(2,6-dimethoxyphenyl)pyridine-2,4-diol], for which the concentration for a half-maximal effect (EC50) under setting [2] lay in the range of 0.01 to 10 nM.
`CCCCc1nc(O)c(C(=O)N2CCC(c3nc(-c4cccnc4)no3)CC2)c(O)c1-c1c(OC)cccc1OC` [Example 69, 6-butyl-5-(2,6-dimethoxyphenyl)-3-{4-[3-(pyridin-3-yl)-1,2,4-oxadiazol-5-yl]piperidine-1-carbonyl}pyridine-2,4-idiol]: the EC50 under setting [3] lay within 10 to 100 nM.
Consider `CCCCc1nc(O)c(C(=O)N2CC(Oc3ncccc3F)C2)c(O)c1-c1c(OC)cccc1OC` [Example 115, 6-butyl-5-(2,6-dimethoxyphenyl)-3-{3-[(3-fluoropyridin-2-yl)oxy]azetidine-1-carbonyl}pyridine-2,4-diol], for which, under setting [2], the EC50 fell in the range of 0.01 to 10 nM.
For the molecule `CCCCc1nc(O)c(C(=O)N2CCC(Oc3ccccc3)CC2)c(O)c1-c1c(OC)cccc1OC` [Example 92, 6-butyl-5-(2,6-dimethoxyphenyl)-3-(4-phenoxypiperidine-1-carbonyl)pyridine-2,4-diol], the EC50 under setting [2] fell in the range of 0.01 to 10 nM.
Turning to `CCCCc1nc(O)c(C(=O)N2CCC(Cc3ccccc3)CC2)c(O)c1-c1c(OC)cccc1OC` [Example 14, 3-(4-benzylpiperidine-1-carbonyl)-6-butyl-5-(2,6-dimethoxyphenyl)pyridine-2,4-diol], the EC50 under setting [3] lay in the range of 0.01 to 10 nM.
For `COc1cccc(-c2c(-c3csc(C)n3)nc(O)c(C(=O)N3CCC(c4ncc(F)cc4F)C3)c2O)c1` (stereo not drawn) [Example 129, 3-[3-(3,5-difluoropyridin-2-yl)pyrrolidine-1-carbonyl]-5-(3-methoxyphenyl)-6-(2-methyl-1,3-thiazol-4-yl)pyridine-2,4-diol], under setting [1], the EC50 is 0.01 to 10 nM.
On to `CCCCc1[nH]c(=O)c(C(=O)N(C)CCc2ccc(Cl)cc2)c(O)c1-c1c(OC)cccc1OC` [Example 27, 6-butyl-N-[2-(4-chlorophenyl)ethyl]-5-(2,6-dimethoxyphenyl)-2,4-dihydroxy-N-methylpyridine-3-carboxamide], for which the EC50 (APJ cAMP EC50 (nM), Table 1) lay in the range of 10 to 100 nM.
